Source: ChEMBL document CHEMBL5543142, “Discovery of YFJ-36: Design, Synthesis, and Antibacterial Activities of Catechol-Conjugated β-Lactams against Gram-Negative Bacteria” (J Med Chem, 2024)

Legend:
[1] = AUC (0 to infinity) in ICR mouse at 20 mg/kg,iv administration measured upto 4 hrs by LC-MS/MS analysis; type: ADME, organism-based; conditions: in vivo
[2] = Clearance in ICR mouse at 20 mg/kg,iv administration measured upto 4 hrs by LC-MS/MS analysis; type: ADME, organism-based; conditions: in vivo
[3] = Half life in ICR mouse at 20 mg/kg,iv administration measured upto 4 hrs by LC-MS/MS analysis; type: ADME, organism-based; conditions: in vivo
[4] = MRT in ICR mouse at 20 mg/kg,iv administration measured upto 4 hrs by LC-MS/MS analysis; type: ADME, organism-based; conditions: in vivo
[5] = Volume of distribution at steady state in ICR mouse at 20 mg/kg,iv administration measured upto 4 hrs by LC-MS/MS analysis; type: ADME, organism-based; conditions: in vivo, read-out: Vdss
[6] = AUC (0 to infinity) in Sprague-Dawley rat at 5 mg/kg,iv administration measured upto 4 hrs by LC-MS/MS analysis; type: ADME, organism-based; conditions: in vivo
[7] = Clearance in Sprague-Dawley rat at 5 mg/kg,iv administration measured upto 4 hrs by LC-MS/MS analysis; type: ADME, organism-based; conditions: in vivo
[8] = Half life in Sprague-Dawley rat at 5 mg/kg,iv administration measured upto 4 hrs by LC-MS/MS analysis; type: ADME, organism-based; conditions: in vivo
[9] = MRT in Sprague-Dawley rat at 5 mg/kg,iv administration measured upto 4 hrs by LC-MS/MS analysis; type: ADME, organism-based; conditions: in vivo
[10] = Volume of distribution at steady state in Sprague-Dawley rat at 5 mg/kg,iv administration measured upto 4 hrs by LC-MS/MS analysis; type: ADME, organism-based; conditions: in vivo, read-out: Vdss
Acinetobacter baumannii [11] = assay: Antibacterial activity against multidrug-resistant Acinetobacter baumannii BM-2023-D2-010 infected in ICR mouse assessed as survival rate at 40 mg/kg,iv after 1 and 5 hour of post-infection measured after 7 days relative to control; type: functional; conditions: time 7 day
Acinetobacter baumannii [12] = assay: Antibacterial activity against multidrug-resistant Acinetobacter baumannii BM-2023-D2-010 infected in ICR mouse assessed as survival rate at 28 mg/kg,iv after 1 and 5 hour of post-infection measured after 7 days relative to control; type: functional; conditions: time 7 day
Acinetobacter baumannii [13] = assay: Antibacterial activity against multidrug-resistant Acinetobacter baumannii BM-2023-D2-010 infected in ICR mouse assessed as survival rate at 19.6 mg/kg,iv after 1 and 5 hour of post-infection measured after 7 days relative to control; type: functional; conditions: time 7 day
Acinetobacter baumannii [14] = assay: Antibacterial activity against multidrug-resistant Acinetobacter baumannii BM-2023-D2-010 infected in ICR mouse assessed as survival rate at 13.7 mg/kg,iv after 1 and 5 hour of post-infection measured after 7 days relative to control; type: functional; conditions: time 7 day
Acinetobacter baumannii [15] = assay: Antibacterial activity against multidrug-resistant Acinetobacter baumannii BM-2023-D2-010 infected in ICR mouse assessed as survival rate at 9.6 mg/kg,iv after 1 and 5 hour of post-infection measured after 7 days relative to control; type: functional; conditions: time 7 day
Acinetobacter baumannii [16] = assay: Antibacterial activity against multidrug-resistant Acinetobacter baumannii BM-2023-D2-010 infected in ICR mouse assessed as survival rate at 6.72 mg/kg,iv after 1 and 5 hour of post-infection measured after 7 days relative to control; type: functional; conditions: time 7 day
Acinetobacter baumannii [17] = assay: Antibacterial activity against multidrug-resistant Acinetobacter baumannii BM-2023-D2-010 infected in ICR mouse assessed as survival rate at 4.71 mg/kg,iv after 1 and 5 hour of post-infection measured after 7 days relative to control; type: functional; conditions: time 7 day

SMILES: Nc1nc(/C(=N/O[C@@H](C(=O)[O-])C2CCC(F)(F)CC2)C(=O)N[C@@H]2C(=O)N3C(C(=O)O)=C(CSCCNC(=O)c4ccc(O)c(O)c4Cl)CS[C@H]23)cs1.[Na+]
- AUC(0-inf) [1]: 8910 ng·h/mL
- clearance [2]: 49.8 mL/min/kg
- half-life [3]: 29.4 min
- MRT [4]: 9.6 min
- Vd [5]: 0.488 L/kg
- AUC(0-inf) [6]: 2260 ng·h/mL
- clearance [7]: 38.7 mL/min/kg
- half-life [8]: 13.8 min
- MRT [9]: 9.6 min
- Vd [10]: 0.37 L/kg
- Activity (Acinetobacter baumannii [11]): 100%
- Activity (Acinetobacter baumannii [12]): 100%
- Activity (Acinetobacter baumannii [13]): 100%
- Activity (Acinetobacter baumannii [14]): 100%
- Activity (Acinetobacter baumannii [15]): 70%
- Activity (Acinetobacter baumannii [16]): 30%
- Activity (Acinetobacter baumannii [17]): 20%
